{"source": "paper PMC11855478", "about": "“Bicyclic N,S-Acetals Containing Fused Cysteine-Amide System as New Heterocyclic Class Targeting Human Farnesyltransferase (FTase-h)” (International Journal of Molecular Sciences, 2025)", "key": {"SF-295 (CNS Cancer)": {"tested_on": "SF-295 (CNS Cancer)", "test": "NCI one dose, SF-295", "format": "cell-based, human", "conditions": "SF-295, 1.00E-5 Molar one dose", "how_it_was_run": "(§1)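 48 h continuous compound exposure in the NCI 60 human cancer cell line screen, followed by sulforhodamine B measurement of cytotoxicity.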"}, "SK-MEL-2 (Melanoma)": {"tested_on": "SK-MEL-2 (Melanoma)", "test": "NCI one dose, SK-MEL-2", "format": "cell-based, human", "conditions": "SK-MEL-2, 1.00E-5 Molar one dose", "how_it_was_run": "(§2)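 Sulforhodamine B protein staining measured cell growth after cells from the NCI 60-line panel were exposed to compound for 48 h.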"}, "IGROV1 (Ovarian Cancer)": {"tested_on": "IGROV1 (Ovarian Cancer)", "test": "NCI one dose, IGROV1", "format": "cell-based, human", "conditions": "IGROV1, 1.00E-5 Molar one dose", "how_it_was_run": "as §2"}, "ACHN (Renal Cancer)": {"tested_on": "ACHN (Renal Cancer)", "test": "NCI one dose, ACHN", "format": "cell-based, human", "conditions": "1.00E-5 Molar one dose", "how_it_was_run": "as §1"}, "COLO 205 (Colon Cancer)": {"tested_on": "COLO 205 (Colon Cancer)", "test": "NCI one dose, COLO 205", "format": "cell-based, human", "conditions": "COLO 205, 1.00E-5 Molar one dose", "how_it_was_run": "as §2"}, "SF-539 (CNS Cancer)": {"tested_on": "SF-539 (CNS Cancer)", "test": "NCI one dose, SF-539", "format": "cell-based, human", "conditions": "SF-539, 1.00E-5 Molar one dose", "how_it_was_run": "as §2"}, "CCRF-CEM (Leukemia)": {"tested_on": "CCRF-CEM (Leukemia)", "test": "NCI one dose, CCRF-CEM", "format": "cell-based, human", "conditions": "1.00E-5 Molar one dose", "how_it_was_run": "as §2"}, "K-562 leukaemia cells": {"tested_on": "K-562 leukaemia cells", "test": "NCI one dose, K-562", "format": "cell-based, human", "conditions": "K-562, 1.00E-5 Molar one dose", "how_it_was_run": "as §2"}, "A498 (Renal Cancer)": {"tested_on": "A498 (Renal Cancer)", "test": "NCI one dose, A498", "format": "cell-based, human", "conditions": "A498, 1.00E-5 Molar one dose", "how_it_was_run": "as §2"}, "OVCAR-4 (Ovarian Cancer)": {"tested_on": "OVCAR-4 (Ovarian Cancer)", "test": "NCI one dose, OVCAR-4", "format": "cell-based, human", "conditions": "OVCAR-4, 1.00E-5 Molar one dose", "how_it_was_run": "as §2"}, "[1]": {"tested_on": "NCI-H322M (Non-Small Cell Lung Cancer)", "test": "NCI one dose, NCI-H322M", "format": "cell-based, human", "conditions": "1.00E-5 Molar one dose", "how_it_was_run": "as §2"}, "RXF 393 (Renal Cancer)": {"tested_on": "RXF 393 (Renal Cancer)", "test": "NCI one dose, RXF 393", "format": "cell-based, human", "conditions": "RXF 393, 1.00E-5 Molar one dose", "how_it_was_run": "as §2"}, "SR (Leukemia)": {"tested_on": "SR (Leukemia)", "test": "NCI one dose, SR", "format": "cell-based, human", "conditions": "1.00E-5 Molar one dose", "how_it_was_run": "as §2"}, "MOLT-4 (Leukemia)": {"tested_on": "MOLT-4 (Leukemia)", "test": "NCI one dose, MOLT-4", "format": "cell-based, human", "conditions": "MOLT-4, 1.00E-5 Molar one dose", "how_it_was_run": "as §2"}, "OVCAR-5 (Ovarian Cancer)": {"tested_on": "OVCAR-5 (Ovarian Cancer)", "test": "NCI one dose, OVCAR-5", "format": "cell-based, human", "conditions": "OVCAR-5, 1.00E-5 Molar one dose", "how_it_was_run": "as §2"}, "[2]": {"tested_on": "NCI-H23 (Non-Small Cell Lung Cancer)", "test": "NCI one dose, NCI-H23", "format": "cell-based, human", "conditions": "NCI-H23, 1.00E-5 Molar one dose", "how_it_was_run": "as §2"}, "UACC-62 (Melanoma)": {"tested_on": "UACC-62 (Melanoma)", "test": "NCI one dose, UACC-62", "format": "cell-based, human", "conditions": "UACC-62, 1.00E-5 Molar one dose", "how_it_was_run": "as §2"}, "MALME-3M (Melanoma)": {"tested_on": "MALME-3M (Melanoma)", "test": "NCI one dose, MALME-3M", "format": "cell-based, human", "conditions": "1.00E-5 Molar one dose", "how_it_was_run": "as §1"}, "HCT-116 (Colon Cancer)": {"tested_on": "HCT-116 (Colon Cancer)", "test": "NCI one dose, HCT-116", "format": "cell-based, human", "conditions": "HCT-116, 1.00E-5 Molar one dose", "how_it_was_run": "as §2"}, "[3]": {"tested_on": "A549/ATCC (Non-Small Cell Lung Cancer)", "test": "NCI one dose, A549/ATCC", "format": "cell-based, human", "conditions": "1.00E-5 Molar one dose", "how_it_was_run": "as §2"}, "[4]": {"tested_on": "HOP-92 (Non-Small Cell Lung Cancer)", "test": "NCI one dose, HOP-92", "format": "cell-based, human", "conditions": "HOP-92, 1.00E-5 Molar one dose", "how_it_was_run": "as §2"}, "HT29 (Colon Cancer)": {"tested_on": "HT29 (Colon Cancer)", "test": "NCI one dose, HT29", "format": "cell-based, human", "conditions": "HT29, 1.00E-5 Molar one dose", "how_it_was_run": "as §2"}, "786-0 (Renal Cancer)": {"tested_on": "786-0 (Renal Cancer)", "test": "NCI one dose, 786-0", "format": "cell-based, human", "conditions": "786-0, 1.00E-5 Molar one dose", "how_it_was_run": "as §2"}, "[5]": {"tested_on": "EKVX (Non-Small Cell Lung Cancer)", "test": "NCI one dose, EKVX", "format": "cell-based, human", "conditions": "1.00E-5 Molar one dose", "how_it_was_run": "as §2"}, "HS 578T (Breast Cancer)": {"tested_on": "HS 578T (Breast Cancer)", "test": "NCI one dose, HS 578T", "format": "cell-based, human", "conditions": "1.00E-5 Molar one dose", "how_it_was_run": "as §2"}, "OVCAR-8 (Ovarian Cancer)": {"tested_on": "OVCAR-8 (Ovarian Cancer)", "test": "NCI one dose, OVCAR-8", "format": "cell-based, human", "conditions": "OVCAR-8, 1.00E-5 Molar one dose", "how_it_was_run": "as §1"}, "[6]": {"tested_on": "panel of 60 human cancer cell lines", "test": "NCI 60 cell panel one dose screen (whole panel)", "format": "cell-based", "design": "Delta (One Dose Mean Graph): unit not given here", "conditions": "1.00E-5 Molar one dose", "how_it_was_run": "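Single-dose screen at 10 µM across the NCI 60 human cancer cell line panel; 48 h compound exposure with growth measured by sulforhodamine B assay.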"}, "SK-MEL-5 (Melanoma)": {"tested_on": "SK-MEL-5 (Melanoma)", "test": "NCI one dose, SK-MEL-5", "format": "cell-based, human", "conditions": "SK-MEL-5, 1.00E-5 Molar one dose", "how_it_was_run": "as §2"}, "SNB-19 (CNS Cancer)": {"tested_on": "SNB-19 (CNS Cancer)", "test": "NCI one dose, SNB-19", "format": "cell-based, human", "conditions": "SNB-19, 1.00E-5 Molar one dose", "how_it_was_run": "as §2"}, "HCT-15 (Colon Cancer)": {"tested_on": "HCT-15 (Colon Cancer)", "test": "NCI one dose, HCT-15", "format": "cell-based, human", "conditions": "HCT-15, 1.00E-5 Molar one dose", "how_it_was_run": "as §2"}, "[7]": {"tested_on": "MDA-MB-231/ATCC (Breast Cancer)", "test": "NCI one dose, MDA-MB-231/ATCC", "format": "cell-based, human", "conditions": "1.00E-5 Molar one dose", "how_it_was_run": "as §2"}, "M14 (Melanoma)": {"tested_on": "M14 (Melanoma)", "test": "NCI one dose, M14", "format": "cell-based, human", "conditions": "M14, 1.00E-5 Molar one dose", "how_it_was_run": "as §2"}, "U251 (CNS Cancer)": {"tested_on": "U251 (CNS Cancer)", "test": "NCI one dose, U251", "format": "cell-based, human", "conditions": "U251, 1.00E-5 Molar one dose", "how_it_was_run": "as §2"}}}
{"compound": "C[C@@]12SC[C@@H](C(=O)NCc3ccccc3C(F)(F)F)N1C(=O)c1ccccc12", "note": "[4bC]", "values": [{"measurement": "Growth Percent", "setting": "SF-295 (CNS Cancer)", "value": 93.93, "unit": "%"}, {"measurement": "Growth Percent", "setting": "SK-MEL-2 (Melanoma)", "value": 87.91, "unit": "%"}, {"measurement": "Growth Percent", "setting": "IGROV1 (Ovarian Cancer)", "value": 103.13, "unit": "%"}, {"measurement": "Growth Percent", "setting": "ACHN (Renal Cancer)", "value": 106.49, "unit": "%"}, {"measurement": "Growth Percent", "setting": "COLO 205 (Colon Cancer)", "value": 104.03, "unit": "%"}, {"measurement": "Growth Percent", "setting": "SF-539 (CNS Cancer)", "value": 100.26, "unit": "%"}, {"measurement": "Growth Percent", "setting": "CCRF-CEM (Leukemia)", "value": 88.01, "unit": "%"}, {"measurement": "Growth Percent", "setting": "K-562 leukaemia cells", "value": 87.85, "unit": "%"}, {"measurement": "Growth Percent", "setting": "A498 (Renal Cancer)", "value": 79.95, "unit": "%"}, {"measurement": "Growth Percent", "setting": "OVCAR-4 (Ovarian Cancer)", "value": 93.35, "unit": "%"}, {"measurement": "Growth Percent", "setting": "[1]", "value": 101.48, "unit": "%"}, {"measurement": "Growth Percent", "setting": "RXF 393 (Renal Cancer)", "value": 101.10, "unit": "%"}, {"measurement": "Growth Percent", "setting": "SR (Leukemia)", "value": 72.94, "unit": "%"}, {"measurement": "Growth Percent", "setting": "MOLT-4 (Leukemia)", "value": 74.60, "unit": "%"}, {"measurement": "Growth Percent", "setting": "OVCAR-5 (Ovarian Cancer)", "value": 102.51, "unit": "%"}, {"measurement": "Growth Percent", "setting": "[2]", "value": 99.44, "unit": "%"}, {"measurement": "Growth Percent", "setting": "UACC-62 (Melanoma)", "value": 87.36, "unit": "%"}, {"measurement": "Growth Percent", "setting": "MALME-3M (Melanoma)", "value": 112.02, "unit": "%"}, {"measurement": "Growth Percent", "setting": "HCT-116 (Colon Cancer)", "value": 89.85, "unit": "%"}, {"measurement": "Growth Percent", "setting": "[3]", "value": 69.56, "unit": "%"}, {"measurement": "Growth Percent", "setting": "[4]", "value": 87.86, "unit": "%"}, {"measurement": "Growth Percent", "setting": "HT29 (Colon Cancer)", "value": 79.15, "unit": "%"}, {"measurement": "Growth Percent", "setting": "786-0 (Renal Cancer)", "value": 101.91, "unit": "%"}, {"measurement": "Growth Percent", "setting": "[5]", "value": 104.01, "unit": "%"}, {"measurement": "Growth Percent", "setting": "HS 578T (Breast Cancer)", "value": 94.37, "unit": "%"}, {"measurement": "Growth Percent", "setting": "OVCAR-8 (Ovarian Cancer)", "value": 92.54, "unit": "%"}, {"measurement": "Delta (One Dose Mean Graph)", "setting": "[6]", "value": 25.73}, {"measurement": "Range (One Dose Mean Graph)", "setting": "[6]; in % (unit assumed)", "value": 45.90}, {"measurement": "Mean Growth Percent", "setting": "[6]; mean over tested cell lines", "value": 95.29, "unit": "%"}, {"measurement": "Growth Percent", "setting": "SK-MEL-5 (Melanoma)", "value": 100.19, "unit": "%"}, {"measurement": "Growth Percent", "setting": "SNB-19 (CNS Cancer)", "value": 103.86, "unit": "%"}, {"measurement": "Growth Percent", "setting": "HCT-15 (Colon Cancer)", "value": 100.40, "unit": "%"}, {"measurement": "Growth Percent", "setting": "[7]", "value": 100.45, "unit": "%"}, {"measurement": "Growth Percent", "setting": "M14 (Melanoma)", "value": 100.54, "unit": "%"}, {"measurement": "Growth Percent", "setting": "U251 (CNS Cancer)", "value": 91.69, "unit": "%"}]}
